According to US5905089A, “Use of sesquiterpene lactones for treatment of severe inflammatory disorders” (Board of Supervisors of Louisiana State University and …, priority 1998, dated 1999):
Values belong to the compound of their own block, whether it stands above or below them.

Columns and labels:
COX-2 [1] = assay: COX-2 expression in LPS-stimulated RAW 264.7 cells (Western blot); assay type: cell-based, murine; details: parthenolide 1 μg/ml with DTT 100 μM, 2-ME 50 μM or Cys 150 μM; LPS 1 μg/ml, 8h; FIG. 6B
Description: (§1) Rat (Sprague-Dawley) alveolar macrophages were collected by broncho-alveolar lavage as described by Lee et al., J. Biol. Chem., vol. 267, pp. 25934-25938 (1992). The murine macrophage cell line RAW 264.7 (ATCC no. TIB-71) was cultured in Dubecco's modified Eagle's medium (DMEM) containing 10% heat-inactivated fetal bovine serum (FBS, Intergen). For the cyclooxygenase activity assay, cells were seeded in 24 well plates, and after near-confluency, cells were treated with aspirin (250 μM) for 2.5h to inactivate endogenous cyclooxygenase. […] COX activity was determined by measuring prostaglandin E2 concentrations in cells incubated with arachidonic acid (30 μM) for 10 minutes as described in Lee et al. (1992).
(§2) The protein levels of COX-2 and GAPDH were assessed by Western blot analysis using polyclonal antibodies as described in Lee et al. (1992). Polyclonal antibodies for IL-1α and JNK-1 were purchased from Genzyme and Santa Cruz Biotech, respectively.
(§3) Parthenolide suppressed LPS-stimulated tyrosine phosphorylation of various proteins in RAW 264.7 cells as assessed by antiphosphotyrosine immunoblot, depicted in FIG. 5A. This inhibition was correlated with the suppressed expression of COX-2 and IL-1α. RAW 264.7 cells were pretreated with parthenolide in various concentrations or with herbimycin A (0.5 μg/ml) for 3h, and then stimulated with LPS (1 μg/ml) in the presence of the inhibitors for 30 min. […] Therefore, the extent of tyrosine phosphorylation of JNK-1 was assessed by the electrophoretic mobility shift of phosphorylated JNK-1 as shown in FIG. 5B. Parthenolide inhibited tyrosine phosphorylation of JNK-1. Another protein tyrosine kinase inhibitor, herbimycin A ([…]), inhibited tyrosine phosphorylation of the MAPK subfamily.
(§4) The mechanism by which parthenolide inhibits protein tyrosine phosphorylation is not currently known. It has been speculated that the tyrosine kinase inhibitor herbimycin A inactivates p60^v-src kinase by irreversibly binding to the sulphydryl (SH) groups of p60^v-src kinase. Y. Uehara et al., Biochem. Biophys. Res. Commun., vol. 163, pp. 803-809 (1989). The inactivation by herbimycin may occur through conjugation between highly polarized double bonds in the benzoquinone moiety of herbimycin A and the SH group of sulphydryl compounds. Without wishing to be bound by this theory, the α-methylenebutyrolactone in parthenolide may interact with biological nucleophiles such as sulphydryl groups. Indeed, pretreating cells with sulphydryl compounds abrogated the inhibitory effect of parthenolide on LPS-induced activation of MAPKs as shown in FIG. 6A. […]

IL-1α = IL-1α expression in LPS-stimulated RAW 264.7 cells (Western blot); assay type: cell-based, murine; details: parthenolide 1 μg/ml with DTT 100 μM, 2-ME 50 μM or Cys 150 μM; LPS 1 μg/ml, 8h; FIG. 6B
Description: as §1, §2, §3, §4

MAPKs = assay: Tyrosine phosphorylation / activation of MAPKs in RAW 264.7 cells; assay type: cell-based, murine; details: for effect on parthenolide inhibition of LPS-induced activation of MAPKs: parthenolide 1 μg/ml with DTT 100 μM, 2-ME 50 μM or Cys 150 μM, LPS 1 μg/ml, 30 min, FIG. 6A
Description: as §1
(§5) This detection technique was carried out essentially as described in Chanmugan et al. (1995) using 4G10 monoclonal antiphosphotyrosine antibody (UBI) and the ECL detection system (Amersham).
as §3
The mechanism by which parthenolide inhibits protein tyrosine phosphorylation is not currently known. It has been speculated that the tyrosine kinase inhibitor herbimycin A inactivates p60^v-src kinase by irreversibly binding to the sulphydryl (SH) groups of p60^v-src kinase. Y. Uehara et al., Biochem. Biophys. Res. Commun., vol. 163, pp. 803-809 (1989). The inactivation by herbimycin may occur through conjugation between highly polarized double bonds in the benzoquinone moiety of herbimycin A and the SH group of sulphydryl compounds. Without wishing to be bound by this theory, the α-methylenebutyrolactone in parthenolide may interact with biological nucleophiles such as sulphydryl groups. Indeed, pretreating cells with sulphydryl compounds abrogated the inhibitory effect of parthenolide on LPS-induced activation of MAPKs as shown in FIG. 6A. In FIG. 6, RAW 264.7 cells were pretreated with parthenolide (1 μg/ml) in the presence of DTT (dithiothreitol, 100 μM), 2-ME (2-mercaptoethanol, 50 μM), or Cys (L-cysteine, 150 μM), and were then stimulated with LPS (1 μg/ml). Cells were incubated for 30 min for antiphosphotyrosine immunoblot analysis (FIG. 6A) and 8h for COX-2 and IL-1α Western blot analyses (FIG. 6B). […] Whether parthenolide inhibits protein tyrosine phosphorylation by directly inhibiting PTKs or by inhibiting other target protein(s) that affect the activity of PTKs is not currently known.

COX-2 [2] = assay: Inhibition of the expression of COX-2 in LPS-stimulated macrophages (Table 1); assay type: cell-based; details: for IC50, inhibiting the expression of COX-2: IC50 determined at multiple dose levels; for inhibitory activity (COX-2 expression), in words: comparison among tested compounds
Description: Rat (Sprague-Dawley) alveolar macrophages were collected by broncho-alveolar lavage as described by Lee et al., J. Biol. Chem., vol.
Alveolar macrophages pretreated with aspirin were incubated with LPS (10 μg/ml) and various concentrations of parthenolide for 16h. The activity of de novo synthesized COX-2 was determined by measuring the levels of PGE2 produced from exogenous arachidonic acid. Activity of TNFα was determined by bioassay using L929 cells as described by Aggarwal et al., J. Biol. Chem., vol. […] Values in FIG. 2 are the means of triplicate samples for TNFα and duplicate samples for PGE2.

tumor = details: cited from earlier work
[3] = tested on: epidermal growth factor receptor; details: in vitro; cited from earlier work
ERK-1 [4] = assay: Kinase activity of ERK-1 in RAW 264.7 cells (in-gel kinase assay, MBP substrate); assay type: cell-based, murine; details: 3h pretreatment, LPS 1 μg/ml 30 min; FIG. 5
Description: as §1
(§6) This assay was performed according to the method described by Kameshita et al., Anal. Biochem., vol. 183, pp. 139-143 (1989) using myelin basic protein (MBP) as a substrate.
(§7) Parthenolide suppressed LPS-stimulated tyrosine phosphorylation of various proteins in RAW 264.7 cells as assessed by antiphosphotyrosine immunoblot, depicted in FIG. 5A. This inhibition was correlated with the suppressed expression of COX-2 and IL-1α. […] Therefore, the extent of tyrosine phosphorylation of JNK-1 was assessed by the electrophoretic mobility shift of phosphorylated JNK-1 as shown in FIG. 5B. […]

ERK-2 [5] = assay: Kinase activity of ERK-2 in RAW 264.7 cells (in-gel kinase assay, MBP substrate); assay type: cell-based, murine; details: 3h pretreatment, LPS 1 μg/ml 30 min; FIG. 5
Description: as §1, §6, §7

ERK-2 [6] = assay: Tyrosine phosphorylation of ERK-2 in RAW 264.7 cells (antiphosphotyrosine immunoblot); assay type: cell-based, murine; details: 3h pretreatment, LPS 1 μg/ml 30 min; FIG. 5A
Description: as §1, §5, §7

ERK-1 [7] = assay: Tyrosine phosphorylation of ERK-1 in RAW 264.7 cells (antiphosphotyrosine immunoblot); assay type: cell-based, murine; details: 3h pretreatment, LPS 1 μg/ml 30 min; FIG. 5A
Description: as §1, §5, §7

Compound: O[C@H](CS)[C@H](O)CS (racemic) [DTT, dithiothreitol]
effect on parthenolide-inhibited expression of COX-2 (COX-2 [1]): recovered expression
effect on parthenolide-inhibited expression of IL-1α (IL-1α): recovered expression
effect on parthenolide inhibition of LPS-induced activation of MAPKs (MAPKs): abrogated

Compound: OCCS [Compound 2-ME, 2-mercaptoethanol]
effect on parthenolide-inhibited expression of COX-2 (COX-2 [1]): recovered expression
effect on parthenolide-inhibited expression of IL-1α (IL-1α): recovered expression
effect on parthenolide inhibition of LPS-induced activation of MAPKs (MAPKs): abrogated

Compound: CC1=C2[C@H]3OC(=O)[C@@H](C)[C@@H]3CC[C@@]2(C)C=CC1=O [Compound 13, Santonin, reference compound]
IC50, inhibiting the expression of COX-2 (COX-2 [2]): > 100 µg/mL

Compound: N[C@@H](CS)C(=O)O [Cys, L-cysteine]
effect on parthenolide-inhibited expression of COX-2 (COX-2 [1]): recovered expression
effect on parthenolide-inhibited expression of IL-1α (IL-1α): recovered expression
effect on parthenolide inhibition of LPS-induced activation of MAPKs (MAPKs): abrogated

Compound: O=c1c(-c2ccc(O)cc2)coc2cc(O)cc(O)c12 [genistein]
tyrosine-specific protein kinase activity of the EGF receptor [3]: inhibited

Compound: C=C1C(=O)O[C@@H]2C[C@@H](C)[C@@H]3C=CC(=O)[C@@]3(C)[C@@H](O)[C@H]12 [helenalin, reference compound]
antitumor activity (tumor): some antitumor activity

Compound: COC1C=CC=C(C)C(=O)NC2=CC(=O)C=C(C2=O)C(OC)C(C)CC(OC)C(OC)C(C)C=C(C)C1OC(N)=O (stereo not shown) [herbimycin A, reference compound]
kinase activity of ERK-1 (ERK-1 [4]): dose-dependent inhibition
kinase activity of ERK-2 (ERK-2 [5]): dose-dependent inhibition
tyrosine phosphorylation of ERK-2 (ERK-2 [6]): dose-dependent inhibition
tyrosine phosphorylation of ERK-1 (ERK-1 [7]): dose-dependent inhibition
tyrosine phosphorylation of the MAPK subfamily (MAPKs; 3h pretreatment (herbimycin A 0.5 μg/ml), LPS 1 μg/ml 30 min): inhibited

The next lines start with results.

IC50, inhibiting the expression of COX-2 (COX-2 [2]): 0.5 µg/mL
Compound: C=C1C(=O)O[C@@H]2/C=C(\C)[C@@H]3O[C@@H]3/C=C(/C(=O)OC)[C@H](O)[C@@H](OC(=O)[C@]3(C)O[C@@H]3C)[C@@H]12 [Compound 5, Melampodin A]
inhibitory activity (COX-2 expression), in words (COX-2 [2]): activities similar to that of parthenolide

IC50, inhibiting the expression of COX-2 (COX-2 [2]): 1.3 µg/mL
Compound: C=C1C(=O)O[C@@H]2[C@H]1CC[C@H](C)[C@]1(CCC(=O)O1)[C@@]2(C)O [Compound 8, Psilostachyin A]

IC50, inhibiting the expression of COX-2 (COX-2 [2]): 1.6 µg/mL
Compound: C=C1C(=O)O[C@@H]2/C=C(\C)CC/C=C(\C)CC[C@@H]12 [Compound 9, Costunolide]

IC50, inhibiting the expression of COX-2 (COX-2 [2]): 5.5 µg/mL
Compound: C[C@@H]1C[C@@H]2OC(=O)[C@]3(C)[C@H]2[C@@H](OC3(C)O)[C@]2(C)C(=O)C=C[C@@H]12 (stereo partly shown) [Compound 10, Tenulin]
inhibitory activity (COX-2 expression), in words (COX-2 [2]): significantly less than that of compounds 1-9
antitumor activity (tumor): antitumor activity

IC50, inhibiting the expression of COX-2 (COX-2 [2]): > 100 µg/mL
Compound: CC1=CCCC2(C)OC2C2OC(=O)C(C)C2CC1 (stereo not shown) [Compound 11, 11,13-dihydroparthenolide]
inhibitory activity (COX-2 expression), in words (COX-2 [2]): loss of inhibitory activity

IC50, inhibiting the expression of COX-2 (COX-2 [2]): > 100 µg/mL
Compound: CC1C(=O)OC2C1CCC1(C)OC1CCC1(C)OC21 (stereo not shown) [Compound 12, 1(10)epoxy-11,13-dihydroparthenolide]
inhibitory activity (COX-2 expression), in words (COX-2 [2]): loss of inhibitory activity

IC50, inhibiting the expression of COX-2 (COX-2 [2]): 0.1 µg/mL
Compound: Encelin [Compound 2]
inhibitory activity (COX-2 expression), in words (COX-2 [2]; listed as Encelin): most active compound tested
inhibitory activity (COX-2 expression), in words (COX-2 [2]; listed as encelin): highest inhibitory activity
